The assay relates to Mycobacterium tuberculosis. In words: Inhibition of Mycobacterium tuberculosis harboring cydAB mutant inverted-membrane vesicle cytochrome bd oxidase assessed as reduction in oxygen consumption rate at 10 uM measured upto 4 days by Methylene blue dye based assay. The assay is classed as cell membranes. The note with it: time <= 4.0 day.

Consider `CC(C)=CCC/C(C)=C/CC/C(C)=C/Cc1c(C)[nH]c2ccccc2c1=O` [AURACHIN D], for which the inhibition stood at 55%.

As to `Cc1c(Cc2ccc(OC(F)(F)F)cc2)c(=O)c2ccccc2n1O`, the inhibition worked out at 82%.

In general, inhibition refers to the percentage by which the read-out fell short of the control.

(Values after ChEMBL document CHEMBL5385849, “Discovery of 1-hydroxy-2-methylquinolin-4(1H)-one derivatives as new cytochrome bd oxidase inhibitors for tuberculosis therapy” (Eur J Med Chem, 2023).)
